Laboratory results: patent publication US20220117938A1, “COMBINATON THERAPY WITH A DON PRODRUG AND AN IMMUNE CHECKPOINT INHIBITOR” (DRACEN PHARMACEUTICALS, INC., priority 2019, published 2022)

Key:
[1] = tested on: EL4 tumors; assay: Anti-tumor efficacy of Compound 1 with and without anti-PD-1 in the subcutaneous EL4 murine lymphoma model (Example 2C); format: in vivo, Mus musculus; settings: for ILS (%) / MST: endpoint tumor volume 2000 mm^3
Description: Female C57BL/6 mice were inoculated subcutaneously at the right flank with EL4 cells for tumor development. Five days after tumor inoculation, 48 mice with tumor size ranging from 50-76 mm^3 (average tumor size 65 mm^3) were selected and assigned into 6 groups using stratified randomization with 8 mice per group based upon their tumor volumes. The treatments were started from the day of randomization (defined as D0), Group 1 was treated with Vehicle (Tween 80:Ethanol:Saline—5:5:90 v/v/v), s.c., qd×4, Group 2 was treated with anti-PD-1 10 mg/kg i.p. q4d×4, Group 3 was treated with Compound 1 0.3 mg/kg s.c. q.d.×14, Group 4 was treated with Compound 1 0.3 mg/kg s.c. q.d.×14+anti-PD-1 10 mg/kg i.p. q4d×4, Group 5 was treated with Compound 1 1 mg/kg s.c. q.d.×14, Group 6 was treated with Compound 1 1 mg/kg s.c. q.d.×14+anti-PD-1 10 mg/kg i.p. q4d×4. The tumor sizes were measured three times per week during the treatment. The entire study was terminated on D19 after start of the treatment.
Animal Species: Mus musculus; Strain: […]; Age: 6-8 weeks; Sex: female; Body weight (at treatment start): 17-22 g.
The EL4 tumor cells were maintained in vitro as a monolayer culture in DMEM medium supplemented with 10% heat inactivated horse serum and 100 μg/mL penicillin streptomycin at 37° C. in an atmosphere of 5% CO2 in air. The tumor cells were routinely subcultured twice weekly by trypsin-EDTA treatment. The cells growing to a confluency around 70%-80% were harvested and counted for tumor inoculation. The cultured EL4 were harvested, re-suspended in base medium at a density of […] with viability>90%. Each mouse was inoculated subcutaneously at the right flank with 2×10^5 in 0.1 ml base medium for tumor development.
The treatments were started on day 5 after tumor inoculation when the tumor size reached 50-76 mm^3 (average tumor size 65 mm^3). Each group consisted of 8 tumor bearing mice. The testing article was administrated at the dosing volume indicated to the mice according to the predetermined regimen as shown Table 2C-1. Testing article formulations were prepared according to standard procedures. Details regarding tumor measurements and endpoints, and statistical analysis are provided in EXAMPLE 3.
Tumor sizes were measured three times a week in two dimensions using a caliper, and the volume expressed in mm^3 using the formula: V=0.5 a×b^2 where a and b are the long and short diameters of the tumor, respectively. The tumor sizes were then used for the calculations of both tumor growth inhibition (TGI) and T/C values.
TGI is calculated for each group using the formula: […]
TVTreatment_DayN is the average tumor volume of a treatment group on a given day, TVTreatment_Day0 is the average tumor volume of the treatment group on the first day of treatment, TVVehicle_DayN is the average tumor volume of the vehicle control group on a given day, and TVVehicle_Day0 is the average tumor volume of the vehicle group on the first day of treatment.
The T/C value (in percent) is an indication of antitumor effectiveness, T/C (%)=RTVTreatment/RTVControl×100% (RTVTreatment: the mean RTV of the treatment group; RTVControl: the mean RTV of the vehicle treated group). RTV (relative tumor volume)=TVDayN/TVDay0. TVDayN and TVDay0 is the tumor volume on day N and Day 0 respectively. T/C (%)≤42% is considered as significant antitumor activity and <10% is considered as highly significant antitumor activity by the National Cancer Institute criteria.
Animal survival curve: When an individual animal reached to the termination endpoint (TV>2000 mm^3), the mouse was euthanized. The time from treatment initiation to the termination was deemed as its survival time. Survival curve was plotted by Kaplan-Meier method. Median survival time (MST) was calculated for each group. Increase of life span (ILS) was calculated according to the following formula: […]
ILS (%)>25% is considered as a biologically significant survival benefit. […]

[2] = tested on: LK-2 tumors; assay: Anti-tumor efficacy of Compound 1 in the LK-2 xenograft model (Example 13); format: in vivo, mice
Description: Female BALB/c nude mice were inoculated subcutaneously in the right flank with LK-2 cells for tumor development. Four days after tumor inoculation, mice with tumor sizes reaching approximately 171 mm^3 (range from 112 mm^3 to 222 mm^3) were selected and assigned into groups using stratified randomization with 8 mice per group based upon their tumor volumes. The treatments were started from the day of randomization (defined as D0), Group 1 was treated with Vehicle control, 10 ml/kg, IP, bid×19; Group 2 was treated with Compound 1, 1.4 mg/kg, SC, 5d ON, 2d OFF×2 cycles, followed Compound 1, 2.8 mg/kg, SC, 5d ON, 2 d OFF×1 cycle; Group 3 was treated with Compound 1, 7 mg/kg, IV, tiw (Mon, Wed, Fri)×3 cycles; and Group 4 was treated with Compound 1, 3.3 mg/kg, IV, tiw (Mon, Wed, Fri)×3 cycles. The tumor sizes were measured two times per week during the treatment. The entire study was terminated on D18 after start of the treatment. All treatments were well-tolerated without any adverse effects or significant body weight loss.

[3] = Group 2, 1.4 mg/kg SC 5 d ON 2 d OFF x2 cycles, then 2.8 mg/kg x1 cycle
[4] = Group 3, 7 mg/kg IV tiw x3 cycles
[5] = Group 4, 3.3 mg/kg IV tiw x3 cycles

CC(=O)N[C@@H](Cc1c[nH]c2ccccc12)C(=O)N[C@@H](CCC(=O)C=[N+]=[N-])C(=O)OC(C)C [Compound 1, Isopropyl (S)-2-((S)-2-acetamido-3-(1H-indol-3-yl)propanamido)-6-diazo-5-oxohexanoate]
ILS (%) ([1]; Compound 1 0.3 mg/kg): 0%
MST ([1]; Compound 1 0.3 mg/kg): 9 days
ILS (%) ([1]; Compound 1 1 mg/kg): 35.7%
MST ([1]; Compound 1 1 mg/kg): 14 days
RTV at day 7 ([1]; Cpd. 1 0.3 mg/kg): 21.9 ± 1.51
RTV at day 7 ([1]; Cpd. 1 1 mg/kg): 11.2 ± 1.25
Tumor volume (Mean ± SEM) ([1]; Day 0, Cpd. 1 0.3 mg/kg): 65 ± 3 mm^3
Tumor volume (Mean ± SEM) ([1]; Day 0, Cpd. 1 1 mg/kg): 65 ± 3 mm^3
Tumor volume (Mean ± SEM) ([1]; Day 2, Cpd. 1 0.3 mg/kg): 245 ± 6 mm^3
Tumor volume (Mean ± SEM) ([1]; Day 2, Cpd. 1 1 mg/kg): 194 ± 15 mm^3
Tumor volume (Mean ± SEM) ([1]; Day 5, Cpd. 1 0.3 mg/kg): 763 ± 29 mm^3
Tumor volume (Mean ± SEM) ([1]; Day 5, Cpd. 1 1 mg/kg): 613 ± 62 mm^3
T/C ([1]; Day 7, Cpd. 1 0.3 mg/kg): 73.86%
TGI ([1]; Day 7, Cpd. 1 0.3 mg/kg): 28.88%
Tumor volume (Mean ± SEM) ([1]; Day 7, Cpd. 1 0.3 mg/kg): 1391 ± 41 mm^3
T/C ([1]; Day 7, Cpd. 1 1 mg/kg): 37.76%
TGI ([1]; Day 7, Cpd. 1 1 mg/kg): 64.42%
Tumor volume (Mean ± SEM) ([1]; Day 7, Cpd. 1 1 mg/kg): 728 ± 96 mm^3
RTV at day 11 [2, 3]: 8.13 ± 1.31
T/C [2, 3]: 84.34%
TGI [2, 3]: 19.84%
Tumor Size at day 14 [2, 3]: 1359 ± 207 mm^3
Tumor volume ([2]; Group 2, 1.4 mg/kg SC 5 d ON 2 d OFF x2 cycles, then 2.8 mg/kg x1 cycle, day 0): 171 ± 10 mm^3
Tumor volume ([2]; Group 2, 1.4 mg/kg SC 5 d ON 2 d OFF x2 cycles, then 2.8 mg/kg x1 cycle, day 2): 207 ± 19 mm^3
Tumor volume ([2]; Group 2, 1.4 mg/kg SC 5 d ON 2 d OFF x2 cycles, then 2.8 mg/kg x1 cycle, day 4): 217 ± 24 mm^3
Tumor volume ([2]; Group 2, 1.4 mg/kg SC 5 d ON 2 d OFF x2 cycles, then 2.8 mg/kg x1 cycle, day 7): 419 ± 81 mm^3
Tumor volume ([2]; Group 2, 1.4 mg/kg SC 5 d ON 2 d OFF x2 cycles, then 2.8 mg/kg x1 cycle, day 10): 780 ± 128 mm^3
Tumor volume ([2]; Group 2, 1.4 mg/kg SC 5 d ON 2 d OFF x2 cycles, then 2.8 mg/kg x1 cycle, day 14): 1359 ± 207 mm^3
RTV at day 11 [2, 4]: 6.29 ± 0.75
T/C [2, 4]: 65.30%
TGI [2, 4]: 40.73%
Tumor Size at day 14 [2, 4]: 1050 ± 113 mm^3
Tumor volume ([2]; Group 3, 7 mg/kg IV tiw x3 cycles, day 0): 171 ± 11 mm^3
Tumor volume ([2]; Group 3, 7 mg/kg IV tiw x3 cycles, day 2): 196 ± 9 mm^3
Tumor volume ([2]; Group 3, 7 mg/kg IV tiw x3 cycles, day 4): 213 ± 8 mm^3
Tumor volume ([2]; Group 3, 7 mg/kg IV tiw x3 cycles, day 7): 256 ± 13 mm^3
Tumor volume ([2]; Group 3, 7 mg/kg IV tiw x3 cycles, day 10): 483 ± 44 mm^3
Tumor volume ([2]; Group 3, 7 mg/kg IV tiw x3 cycles, day 14): 1050 ± 113 mm^3
Tumor volume ([2]; Group 3, 7 mg/kg IV tiw x3 cycles, day 17): 1565 ± 175 mm^3
RTV at day 11 [2, 5]: 7.66 ± 0.88
T/C [2, 5]: 79.51%
TGI [2, 5]: 24.13%
Tumor Size at day 14 [2, 5]: 1294 ± 172 mm^3
Tumor volume ([2]; Group 4, 3.3 mg/kg IV tiw x3 cycles, day 0): 170 ± 10 mm^3
Tumor volume ([2]; Group 4, 3.3 mg/kg IV tiw x3 cycles, day 2): 193 ± 6 mm^3
Tumor volume ([2]; Group 4, 3.3 mg/kg IV tiw x3 cycles, day 4): 211 ± 6 mm^3
Tumor volume ([2]; Group 4, 3.3 mg/kg IV tiw x3 cycles, day 7): 374 ± 47 mm^3
Tumor volume ([2]; Group 4, 3.3 mg/kg IV tiw x3 cycles, day 10): 577 ± 68 mm^3
Tumor volume ([2]; Group 4, 3.3 mg/kg IV tiw x3 cycles, day 14): 1294 ± 172 mm^3
